Measurements published in ChEMBL document CHEMBL4507320, “Data for DCP probe NVS-MALT1” (2021).
The source made the active and inactive calls. No cut-off for these calls is given here.

What was measured:
[1] = target: Ribosomal protein S6 kinase alpha-2 (Homo sapiens) (UniProt Q15349); settings: Compound concentration 1000.0 nM
[2] = target: Calcium/calmodulin-dependent protein kinase kinase 2 (Homo sapiens) (UniProt Q96RR4); settings: Compound concentration 1000.0 nM
[3] = tested on: Epidermal growth factor receptor (Homo sapiens), P00533 [UNDEFINED MUTATION]; settings: Compound concentration 1000.0 nM
[4] = target: Death-associated protein kinase 2 (Homo sapiens) (UniProt Q9UIK4); settings: Compound concentration 1000.0 nM
[5] = target: Histamine H1 receptor (Homo sapiens) (UniProt P35367); settings: Compound concentration 10.0 uM
[6] = tested on: Mast/stem cell growth factor receptor Kit (Homo sapiens), P10721 [V559D]; settings: Compound concentration 1000.0 nM
[7] = target: NUAK family SNF1-like kinase 2 (Homo sapiens) (UniProt Q9H093); settings: Compound concentration 1000.0 nM
[8] = target: Mitogen-activated protein kinase 4 (Homo sapiens) (UniProt P31152); settings: Compound concentration 1000.0 nM
[9] = target: Peripheral plasma membrane protein CASK (Homo sapiens) (UniProt O14936); settings: Compound concentration 1000.0 nM
Peripheral plasma membrane protein CASK (Homo sapiens), sequence (O14936 whole entry): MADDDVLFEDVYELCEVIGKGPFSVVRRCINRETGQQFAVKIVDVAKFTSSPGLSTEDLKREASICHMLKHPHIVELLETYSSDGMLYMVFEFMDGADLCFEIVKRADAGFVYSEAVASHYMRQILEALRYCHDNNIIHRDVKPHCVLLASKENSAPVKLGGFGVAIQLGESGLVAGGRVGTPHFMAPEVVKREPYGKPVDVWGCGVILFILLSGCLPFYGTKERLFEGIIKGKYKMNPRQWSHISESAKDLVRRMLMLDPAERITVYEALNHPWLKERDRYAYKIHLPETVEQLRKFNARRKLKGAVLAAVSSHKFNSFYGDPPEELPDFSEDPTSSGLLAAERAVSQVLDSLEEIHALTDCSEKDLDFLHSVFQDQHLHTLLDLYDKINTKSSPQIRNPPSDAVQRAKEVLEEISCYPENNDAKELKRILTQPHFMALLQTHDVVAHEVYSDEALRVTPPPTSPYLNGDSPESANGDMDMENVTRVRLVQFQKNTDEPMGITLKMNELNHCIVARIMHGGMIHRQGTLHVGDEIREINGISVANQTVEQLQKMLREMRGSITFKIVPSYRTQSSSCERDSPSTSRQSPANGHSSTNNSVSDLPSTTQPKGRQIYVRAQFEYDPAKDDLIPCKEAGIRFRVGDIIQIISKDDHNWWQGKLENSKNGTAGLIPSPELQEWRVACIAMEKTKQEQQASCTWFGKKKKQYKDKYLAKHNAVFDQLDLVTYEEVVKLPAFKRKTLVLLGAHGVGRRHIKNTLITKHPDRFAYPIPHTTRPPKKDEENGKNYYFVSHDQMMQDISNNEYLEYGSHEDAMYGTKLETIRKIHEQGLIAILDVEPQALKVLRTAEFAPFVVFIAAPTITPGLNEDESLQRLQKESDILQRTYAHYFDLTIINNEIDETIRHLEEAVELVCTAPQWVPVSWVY

[10] = tested on: Mast/stem cell growth factor receptor Kit (Homo sapiens), P10721 [V559D,V654A]; settings: Compound concentration 1000.0 nM
[11] = target: Hepatocyte growth factor receptor (Homo sapiens) (UniProt P08581); settings: Compound concentration 1000.0 nM
[12] = target: Vascular endothelial growth factor receptor 1 (Homo sapiens) (UniProt P17948); settings: Compound concentration 1000.0 nM
[13] = target: Death-associated protein kinase 1 (Homo sapiens) (UniProt P53355); settings: Compound concentration 1000.0 nM
[14] = target: High affinity nerve growth factor receptor (Homo sapiens) (UniProt P04629); settings: Compound concentration 1000.0 nM
[15] = target: Receptor tyrosine-protein kinase erbB-4 (Homo sapiens) (UniProt Q15303); settings: Compound concentration 1000.0 nM
Receptor tyrosine-protein kinase erbB-4 (Homo sapiens), sequence (Q15303 whole entry): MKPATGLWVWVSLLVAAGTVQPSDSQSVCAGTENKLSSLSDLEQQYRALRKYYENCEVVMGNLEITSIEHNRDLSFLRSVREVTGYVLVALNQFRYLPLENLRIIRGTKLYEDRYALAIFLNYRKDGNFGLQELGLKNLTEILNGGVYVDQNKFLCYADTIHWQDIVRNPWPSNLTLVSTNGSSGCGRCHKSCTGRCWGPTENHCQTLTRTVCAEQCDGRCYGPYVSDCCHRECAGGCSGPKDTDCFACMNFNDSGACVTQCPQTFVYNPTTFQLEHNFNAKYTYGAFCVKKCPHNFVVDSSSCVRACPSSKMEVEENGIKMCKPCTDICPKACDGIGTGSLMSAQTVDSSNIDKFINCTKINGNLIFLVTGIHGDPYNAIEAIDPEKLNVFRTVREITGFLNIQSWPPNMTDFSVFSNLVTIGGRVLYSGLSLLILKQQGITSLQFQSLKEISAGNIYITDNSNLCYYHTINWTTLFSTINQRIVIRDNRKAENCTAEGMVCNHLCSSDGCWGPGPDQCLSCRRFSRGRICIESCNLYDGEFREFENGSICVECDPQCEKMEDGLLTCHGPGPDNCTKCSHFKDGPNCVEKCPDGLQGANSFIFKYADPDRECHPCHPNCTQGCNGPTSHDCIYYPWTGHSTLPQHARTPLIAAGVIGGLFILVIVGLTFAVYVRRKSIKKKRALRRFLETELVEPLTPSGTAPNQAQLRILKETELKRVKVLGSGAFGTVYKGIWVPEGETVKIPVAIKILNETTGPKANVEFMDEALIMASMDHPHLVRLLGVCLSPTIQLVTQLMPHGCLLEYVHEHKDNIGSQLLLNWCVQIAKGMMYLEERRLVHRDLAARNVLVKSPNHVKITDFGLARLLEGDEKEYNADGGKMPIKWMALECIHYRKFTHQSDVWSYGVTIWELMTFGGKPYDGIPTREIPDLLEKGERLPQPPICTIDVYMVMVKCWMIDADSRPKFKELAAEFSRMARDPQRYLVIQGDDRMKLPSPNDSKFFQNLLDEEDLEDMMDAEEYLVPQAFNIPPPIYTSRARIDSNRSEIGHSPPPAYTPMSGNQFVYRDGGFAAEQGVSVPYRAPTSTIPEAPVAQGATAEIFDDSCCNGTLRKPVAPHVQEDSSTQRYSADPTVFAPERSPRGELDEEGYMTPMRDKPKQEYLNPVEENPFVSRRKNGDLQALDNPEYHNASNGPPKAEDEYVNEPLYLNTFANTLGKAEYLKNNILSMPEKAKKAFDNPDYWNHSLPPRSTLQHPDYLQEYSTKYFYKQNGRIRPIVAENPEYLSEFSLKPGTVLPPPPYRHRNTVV

[16] = target: Rhodopsin kinase GRK7 (Homo sapiens) (UniProt Q8WTQ7); settings: Compound concentration 1000.0 nM
Rhodopsin kinase GRK7 (Homo sapiens), sequence (Q8WTQ7 whole entry): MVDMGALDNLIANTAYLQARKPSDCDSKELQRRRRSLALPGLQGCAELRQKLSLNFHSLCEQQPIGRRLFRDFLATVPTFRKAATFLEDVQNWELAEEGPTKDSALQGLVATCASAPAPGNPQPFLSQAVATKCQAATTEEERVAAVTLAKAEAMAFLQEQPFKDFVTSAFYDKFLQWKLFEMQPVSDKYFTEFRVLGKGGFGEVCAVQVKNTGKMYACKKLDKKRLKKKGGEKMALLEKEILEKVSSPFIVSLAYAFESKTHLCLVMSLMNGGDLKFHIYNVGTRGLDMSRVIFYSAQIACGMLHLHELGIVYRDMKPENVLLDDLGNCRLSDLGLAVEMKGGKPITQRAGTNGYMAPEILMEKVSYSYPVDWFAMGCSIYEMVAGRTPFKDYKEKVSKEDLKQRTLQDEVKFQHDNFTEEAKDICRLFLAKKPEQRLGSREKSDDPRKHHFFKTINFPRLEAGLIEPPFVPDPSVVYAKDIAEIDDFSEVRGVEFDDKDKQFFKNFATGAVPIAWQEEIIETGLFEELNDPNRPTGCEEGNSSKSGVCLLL

[17] = tested on: Tyrosine-protein kinase ABL1 (Homo sapiens), P00519 [M351T]; settings: Compound concentration 1000.0 nM
[18] = target: Serine/threonine-protein kinase MAK (Homo sapiens) (UniProt P20794); settings: Compound concentration 1000.0 nM
[19] = tested on: Receptor-type tyrosine-protein kinase FLT3 (Homo sapiens), P36888 [N841I]; settings: Compound concentration 1000.0 nM
[20] = target: Serine/threonine-protein kinase Nek3 (Homo sapiens) (UniProt P51956); settings: Compound concentration 1000.0 nM
[21] = target: Serine/threonine-protein kinase SIK1 (Homo sapiens) (UniProt P57059); settings: Compound concentration 1000.0 nM
Serine/threonine-protein kinase SIK1 (Homo sapiens), sequence (P57059 whole entry): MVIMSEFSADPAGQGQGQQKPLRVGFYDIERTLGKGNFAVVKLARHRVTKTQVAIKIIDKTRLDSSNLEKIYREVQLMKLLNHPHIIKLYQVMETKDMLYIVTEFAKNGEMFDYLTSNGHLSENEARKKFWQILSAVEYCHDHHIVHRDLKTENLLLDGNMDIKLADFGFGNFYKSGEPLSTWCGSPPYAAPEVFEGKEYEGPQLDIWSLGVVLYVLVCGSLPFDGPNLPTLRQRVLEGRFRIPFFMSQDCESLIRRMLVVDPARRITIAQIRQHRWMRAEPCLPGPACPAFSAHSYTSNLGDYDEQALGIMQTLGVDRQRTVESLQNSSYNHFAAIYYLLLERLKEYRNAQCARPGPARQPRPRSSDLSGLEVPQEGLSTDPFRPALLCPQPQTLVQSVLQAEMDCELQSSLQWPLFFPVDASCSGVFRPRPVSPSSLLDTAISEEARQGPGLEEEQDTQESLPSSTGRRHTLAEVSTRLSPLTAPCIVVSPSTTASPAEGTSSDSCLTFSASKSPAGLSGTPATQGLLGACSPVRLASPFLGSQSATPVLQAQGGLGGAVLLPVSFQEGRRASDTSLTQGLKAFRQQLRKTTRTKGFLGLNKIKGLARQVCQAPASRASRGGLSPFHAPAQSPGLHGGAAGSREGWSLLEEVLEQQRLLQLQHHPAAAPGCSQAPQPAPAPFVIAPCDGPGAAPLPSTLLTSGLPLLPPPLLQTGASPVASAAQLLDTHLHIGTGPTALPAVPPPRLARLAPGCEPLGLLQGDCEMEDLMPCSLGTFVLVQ

[22] = target: Serine/threonine-protein kinase B-raf (Homo sapiens) (UniProt P15056); settings: Compound concentration 1000.0 nM
[23] = tested on: ALK tyrosine kinase receptor (Homo sapiens), Q9UM73 [L1196M]; settings: Compound concentration 1000.0 nM
[24] = target: Dual specificity tyrosine-phosphorylation-regulated kinase 2 (Homo sapiens) (UniProt Q92630); settings: Compound concentration 1000.0 nM
Dual specificity tyrosine-phosphorylation-regulated kinase 2 (Homo sapiens), sequence (Q92630 whole entry): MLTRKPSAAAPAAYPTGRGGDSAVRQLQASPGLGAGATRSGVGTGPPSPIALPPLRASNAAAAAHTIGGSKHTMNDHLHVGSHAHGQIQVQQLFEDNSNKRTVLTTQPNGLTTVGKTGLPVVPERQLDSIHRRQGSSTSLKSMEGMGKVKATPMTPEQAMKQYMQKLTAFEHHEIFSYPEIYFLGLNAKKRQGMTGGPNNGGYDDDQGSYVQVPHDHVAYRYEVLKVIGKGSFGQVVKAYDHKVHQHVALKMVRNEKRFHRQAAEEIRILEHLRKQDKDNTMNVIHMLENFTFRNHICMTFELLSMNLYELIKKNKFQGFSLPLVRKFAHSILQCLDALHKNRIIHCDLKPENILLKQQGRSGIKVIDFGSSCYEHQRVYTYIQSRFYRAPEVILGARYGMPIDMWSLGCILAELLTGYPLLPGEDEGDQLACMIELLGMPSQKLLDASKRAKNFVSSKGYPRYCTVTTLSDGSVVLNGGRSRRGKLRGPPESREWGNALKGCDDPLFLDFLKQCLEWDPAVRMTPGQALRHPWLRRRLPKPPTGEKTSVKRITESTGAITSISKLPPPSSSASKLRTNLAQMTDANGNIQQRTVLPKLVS

[25] = target: Cyclin-dependent kinase 2 (Homo sapiens) (UniProt P24941); settings: Compound concentration 1000.0 nM
[26] = tested on: Phosphatidylinositol 4,5-bisphosphate 3-kinase catalytic subunit alpha isoform (Homo sapiens), P42336 [E545K]; settings: Compound concentration 1000.0 nM
[27] = target: Serine/threonine-protein kinase 38 (Homo sapiens) (UniProt Q15208); settings: Compound concentration 1000.0 nM
[28] = target: NUAK family SNF1-like kinase 1 (Homo sapiens) (UniProt O60285); settings: Compound concentration 1000.0 nM
NUAK family SNF1-like kinase 1 (Homo sapiens), sequence (O60285 whole entry): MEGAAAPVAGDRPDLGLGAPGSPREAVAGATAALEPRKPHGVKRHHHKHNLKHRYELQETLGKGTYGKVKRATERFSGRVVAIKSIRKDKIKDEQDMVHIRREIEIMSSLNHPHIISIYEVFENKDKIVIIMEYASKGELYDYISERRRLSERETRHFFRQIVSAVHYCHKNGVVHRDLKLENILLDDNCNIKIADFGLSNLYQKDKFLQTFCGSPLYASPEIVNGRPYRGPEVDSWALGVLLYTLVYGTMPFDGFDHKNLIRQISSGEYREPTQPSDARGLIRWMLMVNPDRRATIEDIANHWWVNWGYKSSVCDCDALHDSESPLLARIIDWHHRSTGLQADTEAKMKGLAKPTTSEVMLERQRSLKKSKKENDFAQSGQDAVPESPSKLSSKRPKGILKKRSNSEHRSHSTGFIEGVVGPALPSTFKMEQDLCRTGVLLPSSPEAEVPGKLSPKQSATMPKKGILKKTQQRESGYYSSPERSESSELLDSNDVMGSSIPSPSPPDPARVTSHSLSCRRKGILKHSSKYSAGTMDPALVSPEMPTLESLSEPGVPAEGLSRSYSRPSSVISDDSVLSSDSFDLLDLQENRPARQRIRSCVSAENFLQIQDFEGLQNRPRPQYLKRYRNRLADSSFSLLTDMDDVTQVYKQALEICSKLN

[29] = tested on: Mast/stem cell growth factor receptor Kit (Homo sapiens), P10721 [L576P]; settings: Compound concentration 1000.0 nM
[30] = target: Casein kinase I isoform alpha (Homo sapiens) (UniProt P48729); settings: Compound concentration 1000.0 nM
[31] = target: Serine/threonine-protein kinase PLK4 (Homo sapiens) (UniProt O00444); settings: Compound concentration 1000.0 nM
[32] = target: Coagulation factor VII (Homo sapiens) (UniProt P08709); assay: Factor VIIa (h) Protease assay; settings: Compound concentration 10.0 uM
[33] = target: Receptor-type tyrosine-protein kinase FLT3 (Homo sapiens, UniProt P36888); assay: Kinase panel; parameters: compound concentration 10 uM
[34] = target: Caspase-3 (Homo sapiens) (UniProt P42574); assay: Caspase 3 (h) Protease assay; settings: Compound concentration 10.0 uM
[35] = target: Cathepsin K (Homo sapiens) (UniProt P43235); assay: Cathepsin K (h) Protease assay; settings: Compound concentration 10.0 uM

| SMILES | residual activity [1] [%] | residual activity [2] [%] | residual activity [3] [%] | residual activity [4] [%] | inhibition [5] [%] | residual activity [6] [%] | residual activity [7] [%] | residual activity [8] [%] | residual activity [9] [%] | residual activity [10] [%] | residual activity [11] [%] | residual activity [12] [%] | residual activity [13] [%] | residual activity [14] [%] | residual activity [15] [%] | residual activity [16] [%] | residual activity [17] [%] | residual activity [18] [%] | residual activity [19] [%] | residual activity [20] [%] | further results |
| --- | --- | --- | --- | --- | --- | --- | --- | --- | --- | --- | --- | --- | --- | --- | --- | --- | --- | --- | --- | --- | --- |
| CO[C@@H](C)c1c(Nc2ccc([C@@H](N(C)C(=O)C3CCS(=O)(=O)CC3)C(F)(F)F)cc2)cnc2cc(Cl)nn12 [NVS-MALT1-C] | 89 | 100 | 100 | 41 | -9.88 | 100 | 100 | 100 | 100 | 88 | 85 | 85 | 89 | 93 | 77 | 100 | 59 | 100 | 57 | 61 | residual activity [21]: 85%; residual activity [22]: 76%; residual activity [23]: 94%; residual activity [24]: 95%; residual activity [25]: 100%; residual activity [26]: 62%; residual activity [27]: 88%; residual activity [28]: 99%; residual activity [29]: 100%; residual activity [30]: 72%; residual activity [31]: 100% |
| CO[C@@H](C)c1c(Nc2ccc([C@H](N(C)C(=O)C3CCS(=O)(=O)CC3)C(F)(F)F)cc2)cnc2cc(Cl)nn12 [NVS-MALT1] | 79 | 80 | 98 | 86 | 10.2 | 100 | 100 | 94 | 100 | 92 | 100 | 82 | 88 | 80 | 84 | 100 | 65 | 100 | 23 | 40 | inhibition [32]: -1%; IC50 [33]: 3.5 µM (active); residual activity [21]: 87%; residual activity [22]: 85%; residual activity [23]: 100%; inhibition [34]: -1%; residual activity [24]: 89%; inhibition [35]: 2%; residual activity [25]: 88%; residual activity [26]: 48%; residual activity [27]: 83%; residual activity [28]: 98%; residual activity [29]: 98%; residual activity [30]: 51%; residual activity [31]: 100% |
